Reference: US10807970B2 (priority 2016, dated 2020)

Molecular target: human σ1 receptor (Homo sapiens, UniProt Q99720)
Assay: Human σ1 receptor radioligand assay ([3H](+)-pentazocine, transfected HEK-293 membranes)
Format: binding
Design: μ and σ1 dual binding: key to the marks not given beside the values
Details: one class symbol for both Ki-σ1 (human σ1 receptor, A1) and Ki-μ (human μ-opioid receptor, A2)
Summary of the method: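 Membranes from HEK-293 cells transfected with human σ1 receptor (7 μg) incubated with 5 nM [3H](+)-pentazocine in 50 mM Tris-HCl pH 8, 120 min at 37° C. Non-specific binding defined with 10 μM haloperidol. Bound radioligand separated by filtration, washed with ice-cold 10 mM Tris-HCl pH 7.4, and counted by scintillation.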

Chain of human σ1 receptor (Q99720 whole entry): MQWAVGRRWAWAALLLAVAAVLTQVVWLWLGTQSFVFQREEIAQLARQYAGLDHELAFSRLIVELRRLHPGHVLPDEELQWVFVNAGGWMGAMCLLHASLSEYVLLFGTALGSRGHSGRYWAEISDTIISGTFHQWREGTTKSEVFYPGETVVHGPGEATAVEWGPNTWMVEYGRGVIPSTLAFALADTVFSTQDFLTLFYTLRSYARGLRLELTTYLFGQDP

Row | SMILES | μ and σ1 dual binding
1 | c1ccc(CN2CCN(C3(c4ccccc4)CCOCC3)CC2)cc1 [Example 30, 1-benzyl-4-(4-phenyltetrahydro-2H-pyran-4-yl)piperazine] | ++
2 | CCC1(N2CCN(Cc3ccc(C#N)cc3)CC2)CCOCC1 [Example 174, 4-((4-(4-ethyltetrahydro-2H-pyran-4-yl)piperazin-1-yl)methyl)benzonitrile] | ++
3 | CC(C)OCCN1CCN([C@@]2(C(=O)c3ccccn3)CCOC(C)(C)C2)CC1 [Example 134, (S)-(4-(4-(2-isopropoxyethyl)piperazin-1-yl)-2,2-dimethyltetrahydro-2H-pyran-4-yl)(pyridin-2-yl)methanone] | ++
4 | CC(C)OCCN1CCC([C@]2(C(=O)c3ccccn3)CCOC(C)(C)C2)CC1 [Example 244, (S)-(4-(1-(2-isopropoxyethyl)piperidin-4-yl)-2,2-dimethyltetrahydro-2H-pyran-4-yl)(pyridin-2-yl)methanone] | ++
5 | CN(Cc1ccccc1)[C@@H]1CCN([C@@]2(C(=O)c3ccccn3)CCOC(C)(C)C2)C1 [Example 143] | ++
6 | CC(C)OCCN(C)[C@H]1CCN([C@@]2(C(=O)c3ccccn3)CCOC(C)(C)C2)C1 [Example 147, ((S)-4-((S)-3-((2-isopropoxyethyl)(methyl)amino)pyrrolidin-1-yl)-2,2-dimethyltetrahydro-2H-pyran-4-yl)(pyridin-2-yl)methanone] | ++
7 | CC1(C)CC(C2CCN(Cc3ccccc3)CC2)(C(O)c2ccccn2)CCO1 (centres unmarked) [Example 131, (4-(1-benzylpiperidin-4-yl)-2,2-dimethyltetrahydro-2H-pyran-4-yl)(pyridin-2-yl)methanol] | ++
8 | CC(C)CN1CCC(C2(C(=O)c3ccccn3)CCOC(C)(C)C2)CC1 (centres unmarked) [Example 102, (4-(1-isobutylpiperidin-4-yl)-2,2-dimethyltetrahydro-2H-pyran-4-yl)(pyridin-2-yl)methanone] | ++
9 | CCC1(N2CCN(CCc3cccnc3)CC2)CCOC(C)(C)C1 (centres unmarked) [Example 83, 1-(4-ethyl-2,2-dimethyltetrahydro-2H-pyran-4-yl)-4-(2-(pyridin-3-yl)ethyl)piperazine] | ++
10 | O=C(c1ccccn1)C1(N2CCN(Cc3ccccc3)CC2)CCOC1 (centres unmarked) [Example 20, (3-(4-benzylpiperazin-1-yl)tetrahydrofuran-3-yl)(pyridin-2-yl)methanone] | ++
11 | CN(Cc1ccccc1)C1CN(C2(C(=O)c3ccccn3)CCOC(C)(C)C2)C1 (centres unmarked) [Example 19, (4-(3-(benzyl(methyl)amino)azetidin-1-yl)-2,2-dimethyltetrahydro-2H-pyran-4-yl)(pyridin-2-yl)methanone] | ++
12 | C[C@H]1C[C@@](C(=O)c2ccccn2)(C2CCN(Cc3ccccc3)CC2)CCO1 [Example 152] | ++
13 | CCC1(C2CCN(CCc3ccccc3)CC2)CCOC(C)(C)C1 (centres unmarked) [Example 173, 4-(4-ethyl-2,2-dimethyltetrahydro-2H-pyran-4-yl)-1-phenethylpiperidine] | ++
14 | CC(C)OCCN1CCN(C2(C(=O)c3ccccn3)CCOC2)CC1 (centres unmarked) [Example 74, (3-(4-(2-isopropoxyethyl)piperazin-1-yl)tetrahydrofuran-3-yl)(pyridin-2-yl)methanone] | ++
15 | CC[C@@]1(N2CCN(CCc3ccccc3)CC2)CCOC(C)(C)C1 [Example 113, (R) 1-(4-ethyl-2,2-dimethyltetrahydro-2H-pyran-4-yl)-4-phenethylpiperazine] | ++
16 | CC[C@]1(N2CCN(Cc3ccccc3)CC2)CCO[C@@H](C)C1 [Example 163, 1-benzyl-4-((2S,4S)-4-ethyl-2-methyltetrahydro-2H-pyran-4-yl)piperazine] | ++
17 | CC(C)CN1CCN(C2(Cc3ccccc3)CCOC3(CCCC3)C2)CC1 (centres unmarked) [Example 123, 1-(9-benzyl-6-oxaspiro[4.5]decan-9-yl)-4-isobutylpiperazine] | ++
18 | CCC1(N2CCN(CCOC(C)C)CC2)CCOC(C)(C)C1 (centres unmarked) [Example 39, 1-(4-ethyl-2,2-dimethyltetrahydro-2H-pyran-4-yl)-4-(2-isopropoxyethyl)piperazine] | ++
19 | CC1(N2CCN(Cc3ccccc3)CC2)CCOCC1 [Example 156, 1-Benzyl-4-(4-methyltetrahydro-2H-pyran-4-yl)piperazine] | ++

Same assay, conditions: one class symbol for both Ki-σ1 (human σ1 receptor, A1) and Ki-μ (human μ-opioid receptor, A2); read-out: μ and σ1 dual binding

Row | SMILES | Ki
20 | CC(C)CN1CCN(C2(C(=O)c3ccccn3)CCOC(C)(C)C2)CC1 (centres unmarked) [Example 14, (4-(4-isobutylpiperazin-1-yl)-2,2-dimethyltetrahydro-2H-pyran-4-yl)(pyridin-2-yl)methanone] | > 500 nM
21 | CC1(C)CC(C(=O)c2ccccn2)(N2CCN(CCc3ncccc3Cl)CC2)CCO1 (centres unmarked) [Example 56, (4-(4-(2-(3-chloropyridin-2-yl)ethyl)piperazin-1-yl)-2,2-dimethyltetrahydro-2H-pyran-4-yl)(pyridin-2-yl)methanone] | > 500 nM
22 | CC[C@]1(N2CCN(CCc3ccccc3)CC2)CCOC(C)(C)C1 [Example 112, (S)-1-(4-ethyl-2,2-dimethyltetrahydro-2H-pyran-4-yl)-4-phenethylpiperazine] | < 500 nM
23 | CC1(C)CC(C(=O)c2ccccn2)(N2CCN(CCC(F)(F)F)CC2)CCO1 (centres unmarked) [Example 127, (2,2-dimethyl-4-(4-(3,3,3-trifluoropropyl)piperazin-1-yl)tetrahydro-2H-pyran-4-yl)(pyridin-2-yl)methanone] | > 500 nM
24 | CCOCCCN1CCC(C2(C(=O)c3ccccn3)CCOC(C)(C)C2)CC1 (centres unmarked) [Example 103] | > 500 nM
25 | COc1ccc(CN2CCN(C3(C(=O)c4ccccn4)CCOCC3)CC2)cc1 [Example 195, (4-(4-(4-methoxybenzyl)piperazin-1-yl)tetrahydro-2H-pyran-4-yl)(pyridin-2-yl)methanone] | > 500 nM
26 | CC(C)OCCN(C)C1CN(C2(C(=O)c3ccccn3)CCOC(C)(C)C2)C1 (centres unmarked) [Example 23, (4-(3-((2-isopropoxyethyl)(methyl)amino)azetidin-1-yl)-2,2-dimethyltetrahydro-2H-pyran-4-yl)(pyridin-2-yl)methanone] | > 500 nM
27 | CC[C@]1(N2CCN(Cc3ccc(C#N)cc3)CC2)CCO[C@@H](C)C1 (stereo in doubt) [Example 187, 4-((4-(4-ethyl-2-methyltetrahydro-2H-pyran-4-yl)piperazin-1-yl)methyl)benzonitrile] | > 500 nM
28 | CC(C)CCN1CCN([C@]2(C(=O)c3ccccn3)CCO[C@H](C)C2)CC1 [Example 246, ((2R,4R)-4-(4-isopentylpiperazin-1-yl)-2-methyltetrahydro-2H-pyran-4-yl)(pyridin-2-yl)methanone] | < 500 nM

Same assay, conditions: μ and σ1 dual binding, one class symbol for both Ki-σ1 (human σ1 receptor, A1) and Ki-μ (human μ-opioid receptor, A2)

Row | SMILES | Ki
29 | CC1(C)CC(C(=O)c2cccc(C(F)(F)F)n2)(N2CCN(Cc3ccccc3)CC2)CCO1 (centres unmarked) [Example 15, (4-(4-benzylpiperazin-1-yl)-2,2-dimethyltetrahydro-2H-pyran-4-yl)(6-(trifluoromethyl)pyridin-2-yl)methanone] | < 100 nM
30 | CC1(C)CC(C(=O)c2ccccn2)(N2CCN(CCC3CC3)CC2)CCO1 (centres unmarked) [Example 128, (4-(4-(2-cyclopropylethyl)piperazin-1-yl)-2,2-dimethyltetrahydro-2H-pyran-4-yl)(pyridin-2-yl)methanone] | < 500 nM
31 | CC1(C)CC(C(=O)c2ccccn2)(N2CCN(CCc3ccncc3F)CC2)CCO1 (centres unmarked) [Example 85, (4-(4-(2-(3-fluoropyridin-4-yl)ethyl)piperazin-1-yl)-2,2-dimethyltetrahydro-2H-pyran-4-yl)(pyridin-2-yl)methanone] | < 500 nM
32 | CC(C)CN1CCN(C2(C(=O)c3ccccc3)CCOC3(CCCC3)C2)CC1 (centres unmarked) [Example 7, (9-(4-isobutylpiperazin-1-yl)-6-oxaspiro[4.5]decan-9-yl)(phenyl)methanone] | < 100 nM
33 | CCC1(N2CCN(CCc3cccc(F)c3)CC2)CCOC(C)(C)C1 (centres unmarked) [Example 93, 1-(4-ethyl-2,2-dimethyltetrahydro-2H-pyran-4-yl)-4-(3-fluorophenethyl)piperazine] | < 500 nM
34 | CC[C@]1(N2CCN(CCOC(C)C)CC2)CCO[C@@H](C)C1 [Example 157, 1-((2S,4S)-4-ethyl-2-methyltetrahydro-2H-pyran-4-yl)-4-(2-isopropoxyethyl)piperazine] | < 100 nM
35 | CC(C)CN1CCN(C2(C(=O)c3ccccn3)CCOC3(CCCC3)C2)CC1 (centres unmarked) [Example 51, (9-(4-isobutylpiperazin-1-yl)-6-oxaspiro[4.5]decan-9-yl)(pyridin-2-yl)methanone] | < 500 nM
36 | CC1(C)CC(C(=O)c2ccccn2)(N2CC3CN(Cc4ccccc4)CC3C2)CCO1 (centres unmarked) [Example 18, (4-(5-benzylhexahydropyrrolo[3,4-c]pyrrol-2(1H)-yl)-2,2-dimethyltetrahydro-2H-pyran-4-yl)(pyridin-2-yl)methanone] | < 500 nM
37 | CN(Cc1ccccc1)[C@@H]1CCN([C@]2(C(=O)c3ccccn3)CCOC(C)(C)C2)C1 [Example 142] | < 100 nM
38 | CC(C)C1(N2CCN(CCc3ccccc3)CC2)CCOC(C)(C)C1 (centres unmarked) [Example 42, 1-(4-isopropyl-2,2-dimethyltetrahydro-2H-pyran-4-yl)-4-phenethylpiperazine] | < 100 nM
39 | CC1(C)CC(C2CC2)(N2CCN(CCc3ccccc3)CC2)CCO1 (centres unmarked) [Example 44, 1-(4-cyclopropyl-2,2-dimethyltetrahydro-2H-pyran-4-yl)-4-phenethylpiperazine] | < 500 nM
40 | CC1(C)CC(C(=O)c2ccccn2)(N2CCCN(Cc3ccccc3)CC2)CCO1 (centres unmarked) [Example 24, (4-(4-benzyl-1,4-diazepan-1-yl)-2,2-dimethyltetrahydro-2H-pyran-4-yl)(pyridin-2-yl)methanone] | < 500 nM
41 | CCC1(N2CCN(Cc3ccccc3)CC2)CCOC2(CCCC2)C1 (centres unmarked) [Example 29, 1-benzyl-4-(9-ethyl-6-oxaspiro[4.5]decan-9-yl)piperazine] | < 500 nM
